“And” between values parts separate entries of the source, which are not always exact repeats. Identical values can stand only once.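 In this assay, cells in 96-well plates receive the compound at five concentrations for 48 hours. Endpoints are linearly interpolated between the surrounding concentrations. GI50 marks 50% less growth. TGI denotes the concentration required for complete inhibition of growth.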
Tests used:
Assay in all cases: NCI tumour cell line growth inhibition, 48 h
HCT-15 colon = tested on: HCT-15 colon
786-0 renal = tested on: 786-0 renal
NCI-H226 lung = tested on: NCI-H226 lung
U251 CNS = tested on: U251 CNS
SW-620 colon = tested on: SW-620 colon
HL-60(TB) leukemia = tested on: HL-60(TB) leukemia
HOP-92 NSCLC = tested on: HOP-92 NSCLC
UACC-62 melanoma = tested on: UACC-62 melanoma
KM12 colon = tested on: KM12 colon
CAKI-1 renal = tested on: CAKI-1 renal

SMILES	GI50 (HCT-15 colon)	TGI (HCT-15 colon)	GI50 (786-0 renal)	TGI (786-0 renal)	GI50 (NCI-H226 lung)	TGI (NCI-H226 lung)	GI50 (U251 CNS)	TGI (U251 CNS)	GI50 (SW-620 colon)	TGI (SW-620 colon)	GI50 (HL-60(TB) leukemia)	TGI (HL-60(TB) leukemia) [µM]	GI50 (HOP-92 NSCLC)	TGI (HOP-92 NSCLC)	GI50 (UACC-62 melanoma)	TGI (UACC-62 melanoma)	GI50 (KM12 colon)	TGI (KM12 colon)	GI50 (CAKI-1 renal)	TGI (CAKI-1 renal)
Cn1c([N+](=O)[O-])cnc1C=C1C(=O)c2ccccc2C1=O	2.13 µM	6.77 µM	5.18 µM	28.3 µM	13.1 µM	47.4 µM	5.8 µM	20.7 µM	3.34 µM	13.1 µM	2.27 µM	6.08	1.65 µM	6.1 µM	2.04 µM	5.75 µM	11.1 µM	32.7 µM	3.56 µM	14.2 µM
CCN=c1sc2c(n1NC(=O)c1cc3ccc1CCc1ccc(cc1)CC3)C(=O)c1ccccc1C2=O	0.569 µM	1.21 µM	0.727 µM	1.62 µM	2.21 µM	7.33 µM	0.498 µM	1.04 µM	0.593 µM	1.29 µM	0.815 µM	2.3	0.772 µM	2.83 µM	0.593 µM	1.2 µM	1.02 µM	3.83 µM	0.496 µM	2.86 µM
Cc1cccc(NC(=O)c2sc3nc4c(cc3c2N)C(=O)CCC4)c1	0.156 µM	> 100 µM	0.527 µM	> 41 µM	5.8 µM	> 100 µM	0.316 µM	> 34.6 µM	0.212 µM	> 65.8 µM	0.393 µM	> 100	1.8 µM	> 74.9 µM	0.49 µM	> 89.1 µM	0.215 µM	> 100 µM	0.368 µM	> 100 µM
O=c1c2ccccc2sc2c(CO)ccc(NCCN3CCCCC3)c12	–	14 µM	–	12.2 µM	–	10.6 µM	–	14.2 µM	–	11.2 µM	–	11	–	20.9 µM	–	15.6 µM	–	14.8 µM	–	13.3 µM
O=C1[C@@H]2C(c3c(Cl)cccc3Cl)=NO[C@@H]2C(=O)N1c1ccc(Cc2ccc(N3C(=O)[C@H]4C(c5c(Cl)cccc5Cl)=NO[C@H]4C3=O)cc2)cc1	–	> 100 µM	–	> 100 µM	–	> 100 µM	–	> 100 µM	–	> 100 µM	–	> 100	–	> 100 µM	–	> 100 µM	–	> 100 µM	–	> 100 µM
COc1ccc2sc3c(NCCCN)nc4ccccc4c3c(=O)c2c1	1.54 µM	3.05 µM	1.63 µM	3.11 µM	1.84 µM	3.84 µM	1.62 µM	3.19 µM	1.76 µM	3.44 µM	1.89 µM	3.63	1.36 µM	3.39 µM	1.72 µM	3.21 µM	1.82 µM	3.36 µM	1.6 µM	3.06 µM
OC1(c2ccc(Cl)c(C(F)(F)F)c2)CCN(CCCC(c2ccc(F)cc2)c2ccc(F)cc2)CC1	0.888 µM	1.75 µM	0.832 µM	1.52 µM	0.857 µM	1.81 µM	0.784 µM	1.45 µM	0.76 µM	1.43 µM	1.01 µM	2.02	0.448 µM	1.17 µM	0.81 µM	1.5 µM	0.864 µM	1.62 µM	0.922 µM	1.9 µM
CCc1cccc(C)c1NC(=O)CCc1nc(=S)[nH][nH]1	–	> 100 µM	–	> 100 µM	–	> 100 µM	–	> 100 µM	–	> 100 µM	–	> 100	–	> 100 µM	–	> 100 µM	–	> 100 µM	–	> 100 µM
CCN(CC)Cc1cc(Nc2nc(NC3CCC(N(C)C)CC3)c3ccccc3n2)ccc1OC (stereo not drawn)	15.2 µM	35.3 µM	6.67 µM	19.3 µM	3.94 µM	16.8 µM	3.61 µM	14.5 µM	3.18 µM	13.3 µM	3.87 µM	14.9	1.63 µM	6.71 µM	13.2 µM	27.2 µM	3.35 µM	13.2 µM	30.9 µM	> 100 µM
N#C/C(=C\c1cc(OCc2ccccc2)c(OCc2ccccc2)cn1)C(N)=O	–	> 100 µM	–	> 100 µM	–	> 100 µM	–	> 100 µM	–	> 100 µM	–	36.9	–	> 100 µM	–	> 100 µM	–	> 100 µM	–	> 100 µM
CNC(=O)c1ncccc1Nc1nc(Nc2cc3c(cc2OC)CCCN3C(=O)CN(C)C)nc2[nH]ccc12	1.84 µM	9.35 µM	3.23 µM	7.02 µM	1.91 µM	5.78 µM	2.02 µM	5.38 µM	0.224 µM	3.22 µM	0.0921 µM	0.803	0.049 µM	1.98 µM	3.07 µM	6.45 µM	0.728 µM	3.04 µM	2.74 µM	7.22 µM
COC1N(C2CC(O)C(CO)O2)C(=O)NC(=O)C1(F)Br (stereo not drawn)	26.3 µM	50 µM and > 100 µM	31.9 µM	50 µM and > 100 µM	> 88.3 µM	> 100 µM	–	50 µM and > 100 µM	27.7 µM	50 µM and > 100 µM	13.8 µM	> 67	13.2 µM	43.8 µM and > 100 µM	> 50 µM	> 100 µM	30.4 µM	50 µM and > 100 µM	24.9 µM	50 µM and > 100 µM
N#CC(C(=O)C(=O)Nc1c(Cl)cccc1Cl)c1ccccc1 (stereo not drawn)	> 100 µM	> 100 µM	> 100 µM	> 100 µM	> 100 µM	> 100 µM	> 100 µM	> 100 µM	> 100 µM	> 100 µM	> 100 µM	> 100	> 100 µM	> 100 µM	> 100 µM	> 100 µM	> 100 µM	> 100 µM	> 100 µM	> 100 µM
O=C1NC(=O)c2c1n(Cc1ccccc1)c(=O)n2Cc1ccccc1	–	> 100 µM	–	> 100 µM	–	> 100 µM	–	> 100 µM	–	> 100 µM	–	> 100	–	> 100 µM	–	> 100 µM	–	> 100 µM	–	> 100 µM
Cc1nc(N)nc(CCC(=O)Nc2cccc(C(F)(F)F)c2)c1-c1ccc(Cl)cc1	–	> 100 µM	–	> 100 µM	–	> 100 µM	–	> 100 µM	–	> 100 µM	–	> 100	–	> 100 µM	–	> 100 µM	–	> 100 µM	–	> 100 µM
COc1cc([C@@H]2c3cc4c(cc3[C@@H](NC(=O)c3ccc(C#N)cc3)C3COC(=O)[C@@H]32)OCO4)cc(OC)c1O (stereo partly drawn)	–	15.1 µM	–	16 µM	–	0.508 µM	–	1.26 µM	–	10.7 µM	–	11.1	–	22.9 µM	–	2.19 µM	–	3.2 µM	–	13.2 µM
COc1ccc(C(=O)c2cc(OC)c(OC)c(OC)c2OC)cc1O	3.48 µM	> 100 µM	4.35 µM	> 100 µM	20.5 µM	> 100 µM	3.61 µM	> 100 µM	2.99 µM	> 100 µM	2.77 µM	9.82	4.73 µM	> 100 µM	4.3 µM	> 100 µM	2.91 µM	> 100 µM	2.21 µM	6.28 µM
CCCCCOc1ccc(/C=N/Nc2cc(C)nc3ccc(Cl)cc23)cc1	1.43 µM	2.84 µM	1.78 µM	3.32 µM	1.64 µM	3.68 µM	1.7 µM	3.16 µM	1.73 µM	3.53 µM	1.64 µM	3.36	1.47 µM	2.96 µM	1.68 µM	3.15 µM	1.79 µM	3.41 µM	1.64 µM	3.03 µM
CC(=O)O[C@H]1C(=O)[C@@]2(C)C([C@H](OC(=O)c3ccccc3)[C@]3(O)C[C@H](OC(=O)[C@H](O)[C@@H](NC(=O)c4ccccc4)c4ccccc4)C(C)=C1C3(C)C)[C@]1(OC(C)=O)CO[C@@H]1C[C@@H]2O (stereo partly drawn)	0.382 µM	> 50 µM	0.0465 µM	> 50 µM	0.0189 µM	> 50 µM	0.0111 µM	> 50 µM	< 0.005 µM	> 50 µM	0.00528 µM	0.0209	0.054 µM	> 50 µM	0.0207 µM	> 50 µM	< 0.005 µM	> 50 µM	–	> 50 µM
C[C@]12CC[C@H]3[C@@H](CCC4=CC(=O)CC[C@@]43C)[C@@H]1CC[C@@H]2c1csc(N)n1	4.2 µM	19.1 µM	10.7 µM	33.4 µM	4.61 µM	23.7 µM	3.83 µM	19 µM	5.28 µM	20.8 µM	1.65 µM	8.18	11 µM	28.5 µM	2.68 µM	17.8 µM	3 µM	11.6 µM	1.41 µM	13.4 µM
C[C@]12Cc3cn[nH]c3C(=O)C1CC[C@@H]1C2CC[C@@]2(C)C1CC[C@@H]2O (stereo partly drawn)	–	> 100 µM	–	> 100 µM	–	> 100 µM	–	> 100 µM	–	> 100 µM	–	> 100	–	> 100 µM	–	> 100 µM	–	> 100 µM	–	> 100 µM
Cc1nn(-c2ccc(Cl)cc2)c2ncnc(N/N=C/c3ccccc3O)c12	0.407 µM and 0.331 µM	> 100 µM	0.768 µM and 0.509 µM	7.55 µM and 5.84 µM	3.86 µM and 2.55 µM	40.7 µM and > 29.5 µM	0.508 µM and 0.37 µM	16.8 µM and 16.2 µM	1.35 µM and 0.505 µM	> 100 µM	0.335 µM and 0.305 µM	40.7	1.11 µM and 0.714 µM	34.6 µM and 16.3 µM	1.6 µM and 0.91 µM	19.9 µM and 6.95 µM	0.53 µM and 0.385 µM	> 100 µM	0.331 µM and 0.625 µM	3.03 µM and 8.82 µM
CCn1c2c(c3ccccc3c1=O)C(=O)c1ccccc1-2	–	> 100 µM	–	> 100 µM	–	> 100 µM	–	> 100 µM	–	> 100 µM	–	> 100	–	> 100 µM	–	> 100 µM	–	> 100 µM	–	> 100 µM
NNC(=O)C(=O)N/N=C1/CCCC1C(=O)CCC(=O)Nc1ccc(Cl)cc1 (stereo not drawn)	–	> 100 µM	–	> 100 µM	–	> 100 µM	–	> 100 µM	–	> 100 µM	–	> 100	–	> 100 µM	–	24 µM	–	> 100 µM	–	> 100 µM
COc1ccc2c(c1)C(=O)c1c-2c(Nc2ccccc2OC)nc2ccccc12	> 100 µM	> 100 µM	> 100 µM	> 100 µM	> 100 µM	> 100 µM	83.2 µM	> 100 µM	> 100 µM	> 100 µM	> 100 µM	> 100	26.4 µM	> 100 µM	> 100 µM	> 100 µM	> 100 µM	> 100 µM	> 100 µM	> 100 µM
COc1ccc2c(N)ncc(C#Cc3cc(C(=O)Nc4ccc(CN5CCN(C)CC5)c(C(F)(F)F)c4)cnc3C)c2c1	0.386 µM	0.956 µM	0.673 µM	1.25 µM	1.27 µM	9.5 µM	0.581 µM	1.15 µM	0.578 µM	1.3 µM	1.63 µM	11.1	0.88 µM	3.87 µM	1.3 µM	5.92 µM	0.079 µM	2.64 µM	1.36 µM	8.62 µM
COc1cc2c(N3CCN(C(=O)Nc4ccc(OC(C)C)cc4)CC3)ncnc2cc1OCCCN1CCCCC1	16.7 µM	36.1 µM	17.6 µM	37.8 µM	15.2 µM	45.3 µM	14 µM	41.8 µM	14.6 µM	38.8 µM	15.1 µM	36.1	6.24 µM	33.1 µM	15.8 µM	31 µM	3.22 µM	29.8 µM	17.4 µM	> 54.9 µM
Nc1ncc(Cc2ccc3c(c2)OCO3)c(N)n1	–	> 100 µM	–	> 100 µM	–	> 100 µM	–	> 100 µM	–	> 100 µM	–	> 100	–	> 100 µM	–	> 100 µM	–	> 100 µM	–	> 100 µM

From PubChem BioAssay (NCI)
